From PMC9143880, “Improving Antimicrobial Activity and Physico-Chemical Properties by Isosteric Replacement of 2-Aminothiazole with 2-Aminooxazole” (Pharmaceuticals, 2022)
In brackets after ≈: the same amount, converted by molar mass. Where two headings read alike, the source gives them in different places.

Experiments:
M. tuberculosis H37Rv = details: whole cell, cited from earlier work
[1] = system: M. smegmatis DSM 43465 (ATCC 607); assay: Antimycobacterial MIC, microdilution broth / resazurin; type: cell-based; details: Mycolicibacterium smegmatis, read-out: MIC M. smegmatis
[2] = system: M. kansasii DSM 44162 (ATCC 12478); assay: as above; type: cell-based; details: Mycobacterium kansasii, read-out: MIC M. kansasii
[3] = system: Mtb H37Rv CNCTC My 331/88 (ATCC 27294); assay: microbe, parasite or virus in culture; type: cell-based; details: Mycobacterium tuberculosis, read-out: MIC Mtb H37Rv
[4] = system: Mycobacterium tuberculosis H37Ra ITM-M006710 (ATCC 9431); assay: Antimycobacterial MIC, microdilution broth / Alamar Blue (resazurin); type: cell-based; details: Mycobacterium tuberculosis
[5] = system: M. avium DSM 44156 (ATCC 25291); assay: Antimycobacterial MIC, microdilution broth / resazurin; type: cell-based, Mycobacterium avium; details: Mycobacterium avium, read-out: MIC M. avium
[6] = system: M. aurum DSM 43999 (ATCC 23366); assay: as above; type: cell-based; details: Mycolicibacterium aurum, read-out: MIC M. aurum
[7] = system: Candida parapsilosis CCM 8260 (ATCC 22019); assay: Antifungal microdilution broth (EUCAST); details: Lodderomyces parapsilosis, 24 h, read-out: MIC CP
HepG2 cells = assay: HepG2 cytotoxicity screening (CellTiter 96); type: cell-based, human; details: for IC50: Homo sapiens, HepG2, 24 h, 24 h incubation, CellTiter 96, * above highest tested concentration, ** limited by insolubility in medium; for SI: SI = IC50 (µM) HepG2 / MICH37Ra (µM)
[8] = system: Acinetobacter baumannii DSM 30007 (ATCC 19606); assay: Antibacterial microdilution broth (EUCAST); type: cell-based; details: Acinetobacter baumannii; 24h incubation; read-out: MIC AB
[9] = Kinetic water solubility (water-induced precipitation of DMSO stock, UHPLC); type: physicochemical; details: 18 °C, water
Excerpt: A low value of log P is often presumed to be related to increased water solubility, although this might not always be the case since log P is a measure of relative solubility of the compound in the lipophilic and hydrophilic solvents (at equilibrium). Therefore, to be sure, we tested whether the lowered log k’w (related to log P) of the oxazole derivatives would also translate to increased solubility in water in a few representative derivatives. The water solubility of selected compounds was assessed by the kinetic method based on water-induced precipitation of DMSO stock solutions of tested compounds due to reasons described by Azzali and colleagues.
Water solubility was investigated using the kinetic solubility method. The sample (1 mg) was dissolved in the smallest amount of DMSO needed, 25 or 50 μL for subtype I and subtype II compounds, respectively. The samples were mixed at 18 °C in a thermomixer (Thermomixer comfort, Eppendorf, Hamburg, Germany) for 1 h. After mixing, the samples were diluted with water to a concentration of 500 μM, and the precipitate was observed. The sample was filtered through a 0.22 μm filter and diluted to be evaluated by UHPLC. The log S parameter was calculated from the experimental solubility in molar concentration. The samples were measured using the same instrument, software, and column as used in the purity evaluation.

[10] = system: Candida tropicalis CCM 8264 (ATCC 750); assay: Antifungal microdilution broth (EUCAST); details: Candida tropicalis, 24 h, read-out: MIC CT
[11] = system: Staphylococcus aureus subsp. aureus CCM 4223 (ATCC 29213); assay: Antibacterial microdilution broth (EUCAST); type: cell-based; details: Staphylococcus aureus; 24h incubation; read-out: MIC SA
[12] = system: Mtb IZAK (MDR clinical isolate); assay: microbe, parasite or virus in culture; type: cell-based; details: Mycobacterium tuberculosis, read-out: MIC Mtb IZAK
[13] = system: Pseudomonas aeruginosa CCM 3955 (ATCC 27853); assay: Antibacterial microdilution broth (EUCAST); type: cell-based; details: Pseudomonas aeruginosa; 72h incubation; read-out: MIC PA
[14] = system: Staphylococcus aureus subsp. aureus (MRSA) CCM 4750 (ATCC 43300); assay: Antibacterial microdilution broth (EUCAST); type: cell-based; details: Staphylococcus aureus; 24h incubation; read-out: MIC MRSA
[15] = RP-UHPLC lipophilicity parameter log k’w; type: physicochemical; details: for log k’w: RP-UHPLC, acetonitrile/water, log k extrapolated to 0% acetonitrile; for logkw: experimental lipophilicity parameter
Method in brief: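 log k’w from isocratic RP-UHPLC with an acetonitrile/water mobile phase, using 40, 45 and 50% acetonitrile for subtype I and 20, 30 and 40% for subtype II. A single run was made at each mobile-phase composition.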

[16] = system: Staphylococcus epidermidis CCM 4418 (ATCC 12228); assay: Antibacterial microdilution broth (EUCAST); type: cell-based; details: Staphylococcus epidermidis; 24h incubation; read-out: MIC SE
[17] = system: Aspergillus fumigatus ATCC 204305; assay: Antifungal microdilution broth (EUCAST); details: Aspergillus fumigatus, ATCC204305, 24 h, read-out: MIC AF
[18] = system: Candida krusei CCM 8271 (ATCC 6258); assay: Antifungal microdilution broth (EUCAST); details: Pichia kudriavzevii, 24 h, read-out: MIC CK
[19] = system: Trichophyton interdigitale CCM 8377 (ATCC 9533); assay: Antifungal microdilution broth (EUCAST); details: Trichophyton interdigitale, 72 h, read-out: MIC TI
[20] = system: Escherichia coli CCM 3954 (ATCC 25922); assay: Antibacterial microdilution broth (EUCAST); type: cell-based; details: Escherichia coli; 24h incubation; read-out: MIC EC
[21] = system: Lichtheimia corymbifera CCM 8077; assay: Antifungal microdilution broth (EUCAST); details: Lichtheimia corymbifera, CCM8077, 24 h, read-out: MIC LC
[22] = system: Aspergillus flavus CCM 8363; assay: Antifungal microdilution broth (EUCAST); details: Aspergillus flavus, CCM8363, 24 h, read-out: MIC AFla
[23] = system: Enterococcus faecalis CCM 4224 (ATCC 29212); assay: Antibacterial microdilution broth (EUCAST); type: cell-based; details: Enterococcus faecalis; 24h incubation; read-out: MIC EF
[24] = system: Candida albicans CCM 8320 (ATCC 24433); assay: Antifungal microdilution broth (EUCAST); details: Candida albicans, 24 h, read-out: MIC CA
[25] = system: Mtb MATI (MDR clinical isolate); assay: microbe, parasite or virus in culture; type: cell-based; details: Mycobacterium tuberculosis, read-out: MIC Mtb MATI
Mtb laboratory ID MATI = type: cell-based, Mycobacterium tuberculosis; details: MDR strain MATI, CLSI breakpoints 2021
Mtb laboratory ID IZAK = type: cell-based, Mycobacterium tuberculosis; details: MDR strain IZAK, CLSI breakpoints 2020
[26] = 120 h, Middlebrook 7H9, resazurin after 120 h, read-out: Mtb H37Ra MIC
[27] = recalculated from µg/mL, read-out: MICH37Ra

O=C(Nc1nc(-c2ccc(F)cc2)cs1)c1cncc(Cl)n1 [A]
MIC (M. tuberculosis H37Rv; recalculated to µM): 2.3 µM
MIC (M. tuberculosis H37Rv): 0.78 µg/mL

O=C(Nc1nc(-c2ccccn2)cs1)c1ccncc1 [B]
MIC (M. tuberculosis H37Rv): 1.6 to 3.1 µM

O=C(O)c1cn(C2CC2)c2cc(N3CCNCC3)c(F)cc2c1=O [CIP, ciprofloxacin, reference compound]
MIC ([1]; resazurin after 48 h): 0.125 µg/mL (≈ 0.377 µM)
MIC ([2]; resazurin after 96 h): 0.25 µg/mL (≈ 0.754 µM)
MIC [3]: 0.2 µg/mL (≈ 0.604 µM)
MIC [4, 26]: 0.25 µg/mL
MIC ([5]; resazurin after 96 h): 0.25 to 0.5 µg/mL (≈ 0.754 to 1.51 µM)
MIC ([6]; resazurin after 72 h): 0.0156 µg/mL (≈ 0.0472 µM)

O=C(Nc1ncco1)c1ccnc(Cl)c1 [Compound 6b]
MIC [7]: 250 µM (≈ 55.9 µg/mL)
IC50 (HepG2 cells): 664 µM
SI (HepG2 cells): 47.5
MIC [8]: 62.5 µM (≈ 14 µg/mL)
solubility ([9]; water (DMSO stock diluted with water), kinetic from dmso stock, read-out: solubility in water): > 500 µM
solubility ([9]; kinetic method, DMSO stock diluted to 500 μM): no precipitate
MIC [10]: 500 µM (≈ 112 µg/mL)
MIC ([1]; 48 h): 6.25 µg/mL (≈ 27.9 µM)
MIC [11]: 250 µM (≈ 55.9 µg/mL)
MIC [12]: 3.13 µg/mL (≈ 14 µM)
melting point: 158 to 162 °C
MIC ([2]; 96 h): 3.12 µg/mL (≈ 14 µM)
MIC [3]: 6.25 µg/mL (≈ 27.9 µM)
MIC [13]: > 500 µM
MIC [4, 26]: 3.12 µg/mL
MIC [4, 27]: 14 µM
MIC [14]: 62.5 µM (≈ 14 µg/mL)
log k’w [15]: 1.136
logkw [15]: 1.136
MIC [16]: 62.5 µM (≈ 14 µg/mL)
MIC ([5]; 96 h): 3.12 µg/mL (≈ 14 µM)
MIC [17]: 125 µM (≈ 28 µg/mL)
MIC ([6]; 72 h): 3.12 µg/mL (≈ 14 µM)
MIC [18]: 250 µM (≈ 55.9 µg/mL)
MIC [19]: 125 µM (≈ 28 µg/mL)
MIC [20]: 62.5 µM (≈ 14 µg/mL)
MIC [21]: 62.5 µM (≈ 14 µg/mL)
MIC [22]: 500 µM (≈ 112 µg/mL)
MIC [23]: 500 µM (≈ 112 µg/mL)
MIC [24]: 31.2 µM (≈ 6.99 µg/mL)
MIC [25]: 3.13 µg/mL (≈ 14 µM)

Cc1cc(C(=O)Nc2ncco2)cc(Cl)n1 [Compound 7b]
MIC [7]: 500 µM (≈ 119 µg/mL)
IC50 (HepG2 cells): 959 µM
SI (HepG2 cells): >58.3
MIC [8]: 500 µM (≈ 119 µg/mL)
MIC [10]: > 500 µM
MIC ([1]; resazurin after 48 h): 7.81 µg/mL (≈ 32.9 µM)
MIC [11]: 62.5 µM (≈ 14.9 µg/mL)
MIC [12]: 3.13 µg/mL (≈ 13.2 µM)
melting point: 149 to 153 °C
MIC ([2]; resazurin after 96 h): 7.81 µg/mL (≈ 32.9 µM)
MIC [3]: 6.25 µg/mL (≈ 26.3 µM)
MIC [13]: > 500 µM
MIC [4, 26]: < 3.91 µg/mL
MIC [4, 27]: < 16.5 µM
MIC [14]: 125 µM (≈ 29.7 µg/mL)
log k’w [15]: 1.430
logkw [15]: 1.43
MIC [16]: 125 µM (≈ 29.7 µg/mL)
MIC ([5]; resazurin after 96 h): 3.91 µg/mL (≈ 16.5 µM)
MIC [17]: 250 µM (≈ 59.4 µg/mL)
MIC ([6]; resazurin after 72 h): 3.91 µg/mL (≈ 16.5 µM)
MIC [18]: 500 µM (≈ 119 µg/mL)
MIC [19]: 125 µM (≈ 29.7 µg/mL)
MIC [20]: 250 µM (≈ 59.4 µg/mL)
MIC [21]: 125 µM (≈ 29.7 µg/mL)
MIC [22]: > 500 µM
MIC [23]: 500 µM (≈ 119 µg/mL)
MIC [24]: 125 µM (≈ 29.7 µg/mL)
MIC [25]: 3.13 µg/mL (≈ 13.2 µM)

CC[C@@H](CO)NCCN[C@@H](CC)CO [EMB, ethambutol]
MIC [12]: 1.56 µg/mL (≈ 7.64 µM)
MIC [3]: 0.39 µg/mL (≈ 1.91 µM)
Concentration (susceptibility profile) (Mtb laboratory ID MATI): 0.5 µg/mL
Susceptibility (Mtb laboratory ID MATI): sensitive
Concentration (susceptibility profile) (Mtb laboratory ID IZAK): 0.5 µg/mL
Susceptibility (Mtb laboratory ID IZAK): sensitive
MIC [25]: 1.56 µg/mL (≈ 7.64 µM)

NNC(=O)c1ccncc1 [INH, isoniazid, reference compound]
MIC ([1]; resazurin after 48 h): 15.6 to 31.2 µg/mL (≈ 114 to 228 µM)
MIC [12]: 12.5 µg/mL (≈ 91.1 µM)
MIC ([2]; resazurin after 96 h): 3.12 to 6.25 µg/mL (≈ 22.8 to 45.6 µM)
MIC [3]: 0.39 µg/mL (≈ 2.84 µM)
Susceptibility (Mtb laboratory ID MATI): resistant
MIC [4, 26]: 0.25 µg/mL
MIC ([5]; resazurin after 96 h): 1000 µg/mL (≈ 7290 µM)
MIC ([6]; 72 h): 3.91 µg/mL (≈ 28.5 µM)
MIC [25]: 12.5 µg/mL (≈ 91.1 µM)

CO[C@H]1/C=C/O[C@@]2(C)Oc3c(C)c(O)c4c(O)c(c(/C=N/N5CCN(C)CC5)c(O)c4c3C2=O)NC(=O)/C(C)=C\C=C\[C@H](C)[C@H](O)[C@@H](C)[C@@H](O)[C@@H](C)[C@H](OC(C)=O)[C@@H]1C [RIF, rifampicin]
MIC ([1]; resazurin after 48 h): 12.5 µg/mL (≈ 15.2 µM)
MIC ([2]; resazurin after 96 h): 0.025 µg/mL (≈ 0.0304 µM)
Concentration (susceptibility profile) (Mtb laboratory ID MATI): > 8 µg/mL
Susceptibility (Mtb laboratory ID MATI): resistant
Concentration (susceptibility profile) (Mtb laboratory ID IZAK): > 8 µg/mL
Susceptibility (Mtb laboratory ID IZAK): resistant
MIC ([6]; resazurin after 72 h): 0.39 µg/mL (≈ 0.474 µM)
